Test results as given in article PMC6753678, “Fueling Open Innovation for Malaria Transmission-Blocking Drugs: Hundreds of Molecules Targeting Early Parasite Mosquito Stages” (Frontiers in Microbiology, 2019).

Columns and labels:
[1] = system: P. falciparum female gametocytes; assay: P. falciparum female gametogenesis assay (Pf FGAA); conditions: 1: YES; 0: NO
HepG2 cells = conditions: HepG2 value reported with Pf FGAA screen; ref Miguel-Blanco et al 2017; cited from earlier work
[2] = system: P. falciparum female gametocytes; set-up: method as in Miguel-Blanco et al 2017; conditions: TCAMS library screen; ref Miguel-Blanco et al 2017; read-out: Pf FGAA IC50; cited from earlier work

SMILES | Is compound selective in assay? Pf FGAA active? [1] | HepG2 cytoxicity (Pf FGAA screen) (HepG2 cells) [µM] | IC50 [2] [nM]
CN(CCc1ccccc1)c1ncc(-c2cccc(CNCCC3CCCN3C)c2)cn1 (stereo not drawn) [TCMDC-133143] | 0 (0: NO) | 2.88 | 1360
CN1CCCC1CCNCc1cccc(-c2cnc(N3CCCC(C)(C)C3)nc2)c1 (stereo not drawn) [TCMDC-133144] | 0 (0: NO) | 4.63 | 1670
O=C(Nc1cccc(-c2cccc(-c3nc4cc(C(F)(F)F)ccc4[nH]3)c2)c1)Nc1ccc(F)c(F)c1F [TCMDC-133229] | 0 (0: NO) | 3.43 | 1400
COc1ccccc1C1CCN(C2CCC(NC(=O)c3ccc4[nH]c(-c5ccc(C)cc5)nc4c3)CC2)CC1 (stereo not drawn) [TCMDC-133556] | 0 (0: NO) | 3.99 | 2490
CN1CCC(N2CCN(Cc3cccc(-c4ccc(-c5nc6cc(C(F)(F)F)ccc6[nH]5)cc4)c3)CC2)CC1.O=C(O)C(F)(F)F [TCMDC-133842] | 0 (0: NO) | 2.44 | 1090
CN1CCCC(CN2CCN(Cc3cccc(-c4ccc(-c5nc6cc(C(F)(F)F)ccc6[nH]5)cc4)c3)CC2)C1.O=C(O)C(F)(F)F (stereo not drawn) [TCMDC-133882] | 0 (0: NO) | 4.07 | 1300
O=C(O)C(F)(F)F.c1cc(CN2CCC(CCN3CCCCC3)CC2)cc(-c2csc(-c3nc4ccccc4[nH]3)c2)c1 [TCMDC-133919] | 0 (0: NO) | 6.04 | 2110
Cl.NC1CCN(CCc2ccc(NS(=O)(=O)c3ccc(-c4ccccc4)cc3)cc2)CC1 [TCMDC-134085] | 0 (0: NO) | 7.17 | 750
Cn1c(Nc2cc(C(C)(C)C)on2)nc2cc(Nc3ccnc(Nc4cccc(S(=O)(=O)N5CCOCC5)c4)n3)ccc21 [TCMDC-134098] | 0 (0: NO) | 8.13 | 1190
Cc1ccc(C(C(=O)Nc2ccc(N3CCNCC3)c(Cl)c2)c2ccccc2)cc1 (stereo not drawn) [TCMDC-134292] | 1 (1: YES) | 11.89 | 660
CC(C)c1ccc(CN2CCC(CNC(=O)c3cc(-c4cccc(C(F)(F)F)c4)cs3)C2)cc1.O=C(O)C(F)(F)F (stereo not drawn) [TCMDC-134435] | 0 (0: NO) | 5.13 | 1300
CC(C)c1ccc(CN2CCC(CNC(=O)c3cc(-c4ccccc4F)cs3)C2)cc1.O=C(O)C(F)(F)F (stereo not drawn) [TCMDC-134436] | 0 (0: NO) | 9.14 | 1080
CC(C)c1ccc(CN2CCC(CNC(=O)c3cc(-c4cccc(Cl)c4)cs3)C2)cc1.O=C(O)C(F)(F)F (stereo not drawn) [TCMDC-134438] | 1 (1: YES) | 6.53 | 600
COc1cccc(-c2csc(C(=O)NCC3CCN(Cc4ccc(C(C)C)cc4)C3)c2)c1.O=C(O)C(F)(F)F (stereo not drawn) [TCMDC-134439] | 0 (0: NO) | 11.51 | 1370
CC(C)c1ccc(CN2CCC(CNC(=O)c3cc(-c4ccc(N(C)C)cc4)cs3)C2)cc1.O=C(O)C(F)(F)F (stereo not drawn) [TCMDC-134440] | 0 (0: NO) | 5.85 | 710
CC(C)(C)c1ccc(CN2CCC(CNC(=O)c3cc(-c4cccc(F)c4)cs3)C2)cc1.O=C(O)C(F)(F)F (stereo not drawn) [TCMDC-134444] | 0 (0: NO) | 6.61 | 1320
CCc1ccccc1-c1csc(C(=O)NCC2CCN(Cc3ccc(C(C)(C)C)cc3)C2)c1.O=C(O)C(F)(F)F (stereo not drawn) [TCMDC-134448] | 0 (0: NO) | 7.67 | 1200
CN(C)c1ccc(-c2csc(C(=O)NCC3CCN(Cc4ccc(C(C)(C)C)cc4)C3)c2)cc1.O=C(O)C(F)(F)F (stereo not drawn) [TCMDC-134449] | 1 (1: YES) | 7.24 | 600

SMILES | Is compound selective in assay? Pf FGAA active? [1] | HepG2 cytoxicity (Pf FGAA screen) (HepG2 cells) [µM] | IC50 [2] [nM]
O=C(NCC1CCN(Cc2cccc(C(F)(F)F)c2)C1)c1cc(-c2cccc(C(F)(F)F)c2)cs1.O=C(O)C(F)(F)F (stereo not drawn) [TCMDC-134483] | 0 (0: NO) | 16.22 | 1650
O=C(NCC1CCN(Cc2cccc(C(F)(F)F)c2)C1)c1cc(-c2cccc(F)c2)cs1.O=C(O)C(F)(F)F (stereo not drawn) [TCMDC-134484] | 0 (0: NO) | 18.87 | 2260
O=C(NCC1CCN(Cc2cccc(C(F)(F)F)c2)C1)c1cc(-c2cccc(Cl)c2)cs1.O=C(O)C(F)(F)F (stereo not drawn) [TCMDC-134485] | 1 (1: YES) | 16.03 | 890
CN(C)c1ccc(-c2csc(C(=O)NCC3CCN(Cc4cccc(C(F)(F)F)c4)C3)c2)cc1.O=C(O)C(F)(F)F (stereo not drawn) [TCMDC-134486] | 0 (0: NO) | 8.18 | 1560
N#Cc1ccc(-c2ccc(C(=O)NCC3CCN(CCN4CCC(c5ccc6c(c5OCC(N)=O)CCCC6)CC4)CC3)cc2)cc1 [TCMDC-134563] | 0 (0: NO) | 6.17 | 1260
NCCCCNc1cc(-c2ccnc(Nc3cccc(Cl)c3)n2)ccn1 [TCMDC-134683] | 0 (0: NO) | 0.67 | 1460
O=C(O)C(F)(F)F.O=c1[nH]ccc2nc(N[C@@H]3CCNC3)nc(Nc3cc(Cl)cc(Cl)c3)c12 [TCMDC-135052] | 0 (0: NO) | 4.79 | 740
NCCCNc1nc(Nc2ccc(C(F)(F)F)cc2F)c2c(=O)[nH]ccc2n1.O=C(O)C(F)(F)F [TCMDC-135056] | 0 (0: NO) | 9.30 | 1600
COc1ccccc1CNc1ccnc(N2CC(Oc3ccc(F)cc3)C2)n1 [TCMDC-135118] | 1 (1: YES) | 73.68 | 4070
CC(C)(C)OC(=O)NCc1ccc(Nc2nnc(-c3cccc(C(=O)NCc4cc(C(F)(F)F)cc(C(F)(F)F)c4)c3)o2)cc1 [TCMDC-135229] | 0 (0: NO) | 21.43 | 3140
CN1CCN(Cc2ccc(-c3cc4c(Nc5ccc(OCc6cccc(F)c6)c(Cl)c5)ncnc4s3)[nH]2)CC1 [TCMDC-135458] | 0 (0: NO) | 10.98 | 2410
CC(C)N1CCN(C(CN2CCN(CCCOc3ccc(-c4ccccc4)cc3)CC2)c2ccc(F)cc2)CC1.Cl (stereo not drawn) [TCMDC-135497] | 0 (0: NO) | 2.29 | 1420
CC(C)N1CCN(C(CN2CCN(CCCOc3ccccc3-c3ccccc3)CC2)c2ccc(F)cc2)CC1.Cl (stereo not drawn) [TCMDC-135499] | 0 (0: NO) | 4.32 | 1410
COc1ccc2ccccc2c1CCCCN1CCN(CC(c2ccc(F)cc2)N2CCC2)CC1.O=C(O)C(F)(F)F (stereo not drawn) [TCMDC-135867] | 0 (0: NO) | 4.37 | 5860
COc1cc(/C=C(\C2=NC(=O)CS2)c2nc3cccnc3n2C)ccc1O [TCMDC-135917] | 1 (1: YES) | 21.14 | 720
CCn1c(-c2nonc2N)nc2c(-c3cccc(NC(=O)Nc4ccc(Cl)cc4)c3)ncc(OCCCN)c21.O=C(O)C(F)(F)F [TCMDC-136152] | 0 (0: NO) | 10.96 | 1700
CCn1c(-c2nonc2N)nc2c(-c3cccc(NC(=O)Nc4ccc(C(F)(F)F)cc4)c3)ncc(OCCCN)c21.O=C(O)C(F)(F)F [TCMDC-136179] | 0 (0: NO) | 5.62 | 910
